≈ marks a conversion by molar mass, not a printed value. Read-outs that look alike come from different tables or passages of the source.

The conditions of data set [1]: ref www.drugbank.ca, cited from earlier work; for Log P: octanol-water partition coefficient.
The subject of a further data set is Ceriodaphnia dubia. To be noted: cited from earlier work; for toxicity: endpoint not stated.
Data set [2] has as its system Spirostomum ambiguum.
For the next data set, the system named is Notonecta glauca. Conditions: cited from earlier work.
The next data set has as its system M. galloprovincialis. To be noted: fluoxetine 75 ng/L nominal, cited from earlier work.
Another data set relates to Daphnia magna. Conditions: endpoint not stated; cited from earlier work.
The subject of the next data set is Planorbid sp. Conditions: in vivo; cited from earlier work.
A further data set relates to Gammarus pulex. To be noted: cited from earlier work.
Another data set deals with Thamnocephalus platyurus. To be noted: cited from earlier work.
The subject of data set [3] is Spirostomum ambiguum. The source holds these as a separate data set.
The test system of data set [4] is Spirostomum ambiguum. The source holds these as a separate data set.
Data set [5] deals with Spirostomum ambiguum. Description: microbe, parasite or virus in culture.
Another data set in a line: in vitro. To be noted: for LC50 at 1 d / LC50 at 2 d / LC50 at 7 d: Spirostomum ambiguum.
Another data set relates to Oncorhynchus mykiss. To be noted: cited from earlier work.
For data set [6], the system named is Hydropsyche sp. and Erpobdella octoculata. Conditions: effluent reach stream; cited from earlier work.
In the next data set the test system is Leishmania donovani. Conditions: cited from earlier work.
Setting [7] is: Spirostomum ambiguum, 7 d, 10 µg/L, pH 7.4.
The mark [8] stands for this setting: Spirostomum ambiguum, 7 d, 25 µg/L, pH 7.4.
The mark [9] stands for this setting: Spirostomum ambiguum, 8 d, 10 µg/L, pH 7.4.
Setting [10] is: Spirostomum ambiguum, 8 d, 25 µg/L, pH 7.4.
The mark [11] stands for this setting: Spirostomum ambiguum, 12 d, 10 µg/L, pH 7.4.
Where [12] appears, read: Spirostomum ambiguum, 12 d, 25 µg/L, pH 7.4.

In the case of `CNCCC(Oc1ccc(C(F)(F)F)cc1)c1ccccc1` (stereo not shown) [Fluoxetine, fluoxetine], the “Log P” value in [1] is recorded as 4.09. Further, the toxicity with Ceriodaphnia dubia is 0.23 mg/L; in the data set with Daphnia magna, 0.82 mg/L; in the data set with Thamnocephalus platyurus (endpoint not stated), 0.85 mg/L. The “BCF values reached during the uptake phase” value in the data set on Spirostomum ambiguum [2] (S. ambiguum, uptake phase) is not above 1000 L/kg. In addition, the BCF in the data set on Notonecta glauca is reported as 1387 L/kg; in the data set with Planorbid sp., 3000 L/kg; in the data set on Gammarus pulex, 185,900 L/kg. For the same molecule, the concentration in mussel is 2.53 ng/g dry weight in the data set with M. galloprovincialis (after 3 days) and 9.31 ng/g with M. galloprovincialis (after 15 days). The EC20 was determined as 2.03 ± 0.82 mg/L (≈ 6.56 µM) with Spirostomum ambiguum [3] (1 d, pH = 6.0); 1.16 ± 0.14 mg/L (≈ 3.75 µM) in the data set on Spirostomum ambiguum [3] (1 d, pH = 6.5); 1.21 ± 0.04 mg/L (≈ 3.91 µM) in the data set with Spirostomum ambiguum [3] (1 d, pH = 7.4); 1.72 ± 0.51 mg/L (≈ 5.56 µM) in the data set on Spirostomum ambiguum [3] (2 d, pH = 6.0); 0.98 ± 0.16 mg/L (≈ 3.17 µM) in the data set on Spirostomum ambiguum [3] (2 d, pH = 6.5); 1.06 ± 0.11 mg/L (≈ 3.43 µM) in the data set on Spirostomum ambiguum [3] (2 d, pH = 7.4). Besides, the EC20 is recorded as 0.86 ± 0.15 mg/L (≈ 2.78 µM) in the data set with Spirostomum ambiguum [3] (7 d, pH = 6.0); 0.58 ± 0.07 mg/L (≈ 1.88 µM) in the data set with Spirostomum ambiguum [3] (7 d, pH = 6.5); 0.70 ± 0.13 mg/L (≈ 2.26 µM) with Spirostomum ambiguum [3] (7 d, pH = 7.4).

In the case of `CN1CCN2c3ccccc3Cc3ccccc3C2C1` (stereo not shown) [Mianserin, mianserin], the pKa in data set [1] (acid dissociation constant) was 6.92. Besides, in data set [1], the “Log P” value is 3.83. In addition, in the data set with Spirostomum ambiguum [4], the “number of transformation products observed” value is reported as “Five”. Further, the “time of highest concentration in S. ambiguum cells” value in the data set with Spirostomum ambiguum [2] is on record as “two days”. In the data set on Spirostomum ambiguum [2] (Spirostomum ambiguum, 1 d, 100 µg/L, pH 7.4), the “Concentration in S. ambiguum” value came out at 229.05 µg/g. Moreover, the “BCF values reached during the uptake phase” value with Spirostomum ambiguum [2] (Spirostomum ambiguum, pH 7.4) turned out to be 4939 L/kg.

`Fc1ccc([C@@H]2CCNC[C@H]2COc2ccc3c(c2)OCO3)cc1` [Paroxetine, paroxetine]: the EC50 with Spirostomum ambiguum [5] (24 h, 1 d, pH = 6.0) amounted to 3.15 ± 1.68 µg/mL (≈ 9.56 µM); with Spirostomum ambiguum [5] (24 h, 1 d, pH = 6.5), 1.37 ± 0.03 µg/mL (≈ 4.16 µM); in the data set with Spirostomum ambiguum [5] (24 h, 1 d, pH = 7.4), 1.15 ± 0.29 µg/mL (≈ 3.49 µM); in the data set with Spirostomum ambiguum [5] (48 h, 2 d, pH = 6.0), 2.07 ± 0.73 µg/mL (≈ 6.28 µM); with Spirostomum ambiguum [5] (48 h, 2 d, pH = 6.5), 1.24 ± 0.17 µg/mL (≈ 3.76 µM); in the data set on Spirostomum ambiguum [5] (48 h, 2 d, pH = 7.4), 1.1 ± 0.29 µg/mL (≈ 3.34 µM). Moreover, the half-maximal effective concentration (EC50) in the data set on Spirostomum ambiguum [5] ([…], 7 d, pH = 6.0) worked out at 1.32 ± 0.13 µg/mL (≈ 4.01 µM); in the data set with Spirostomum ambiguum [5] ([…], 7 d, pH = 6.5), 0.76 ± 0.26 µg/mL (≈ 2.31 µM); in the data set with Spirostomum ambiguum [5] ([…], 7 d, pH = 7.4), 0.74 ± 0.06 µg/mL (≈ 2.25 µM). The toxicity in the data set with Ceriodaphnia dubia is given as 0.58 mg/L; in the data set on Daphnia magna, 6.3 mg/L. Besides, the values for the LC50 at 1 d in the data set “in vitro” (pH 6), in “in vitro” (pH 6.5) and in the data set “in vitro” (pH 7.4) were 4.53 ± 0.55 µg/mL (≈ 13.8 µM), 1.4 ± 0.06 µg/mL (≈ 4.25 µM) and 1.17 ± 0.29 µg/mL (≈ 3.55 µM), respectively. Moreover, the figures for the LC50 at 2 d in the data set “in vitro” (pH 6) and in the data set “in vitro” (pH 7.4) were 2.55 ± 0.75 µg/mL (≈ 7.74 µM) and 1.15 ± 0.3 µg/mL (≈ 3.49 µM), respectively. Further, the LC50 at 7 d in “in vitro” (pH 6) stood at 1.44 ± 0.21 µg/mL (≈ 4.37 µM); in “in vitro” (pH 6.5), 0.81 ± 0.31 µg/mL (≈ 2.46 µM); in the data set “in vitro” (pH 7.4), 0.77 ± 0.1 µg/mL (≈ 2.34 µM). This molecule gave an LC50 in the data set “in vitro” (pH 6.5) of 1.27 ± 0.16 µg/mL (≈ 3.86 µM). Besides, the “Bioconcentration factor in S. ambiguum” value came out at 905 L/kg in the data set with Spirostomum ambiguum [2] (setting [7]); 794 L/kg with Spirostomum ambiguum [2] (setting [8]); 806 L/kg with Spirostomum ambiguum [2] (setting [9]); 934 L/kg with Spirostomum ambiguum [2] (setting [10]); 3649 L/kg in the data set on Spirostomum ambiguum [2] (setting [11]); 1234 L/kg with Spirostomum ambiguum [2] (setting [12]). Besides, the “Concentration in S. ambiguum” value with Spirostomum ambiguum [2] (setting [7]) came to 0.45 µg/g; with Spirostomum ambiguum [2] (setting [8]), 1.19 µg/g; with Spirostomum ambiguum [2] (setting [9]) it was 0.40 µg/g; in the data set on Spirostomum ambiguum [2] (setting [10]) it was 1.40 µg/g; in the data set with Spirostomum ambiguum [2] (setting [11]) it was 1.82 µg/g; in the data set on Spirostomum ambiguum [2] (setting [12]) it was 1.85 µg/g. Also, the “BCF values reached during the uptake phase” value with Spirostomum ambiguum [2] (Spirostomum ambiguum, pH 7.4) is not above 1000 L/kg.

Turning to `CN[C@H]1CC[C@@H](c2ccc(Cl)c(Cl)c2)c2ccccc21` [Sertraline, sertraline], the “Log P” value in [1] is listed as 5.06. Further, in the data set with Ceriodaphnia dubia, the “48-h LC50” value is recorded as 0.12 mg/L. The results for the LC50 at 1 d in the data set “in vitro” (pH 6), in the data set “in vitro” (pH 6.5) and in the data set “in vitro” (pH 7.4) were 0.85 ± 0.09 µg/mL (≈ 2.78 µM), 0.47 ± 0.11 µg/mL (≈ 1.53 µM) and 0.41 ± 0.05 µg/mL (≈ 1.34 µM), respectively. Further, the LC50 at 2 d turned out to be 0.49 ± 0.1 µg/mL (≈ 1.6 µM) in “in vitro” (pH 6), 0.33 ± 0.06 µg/mL (≈ 1.08 µM) in the data set “in vitro” (pH 6.5) and 0.35 ± 0.01 µg/mL (≈ 1.14 µM) in “in vitro” (pH 7.4). Further, the values for the 50% lethal concentration (LC50) at 7 d in “in vitro” (pH 6), in the data set “in vitro” (pH 6.5) and in “in vitro” (pH 7.4) were 0.33 ± 0.08 µg/mL (≈ 1.08 µM), 0.18 ± 0.04 µg/mL (≈ 0.588 µM) and 0.27 ± 0.03 µg/mL (≈ 0.882 µM), respectively. Further, the “time of highest concentration in cells” value with Spirostomum ambiguum [2] (Spirostomum ambiguum, 100 µg/L, pH 7.4) is given as 24 h. In the data set with Spirostomum ambiguum [2] (Spirostomum ambiguum, pH 7.4), the “BCF values reached during the uptake phase” value is on record as 34,092 L/kg. Besides, the “fall of intracellular concentration in the depuration phase, of the highest concentration” value in the data set on Spirostomum ambiguum [2] (Spirostomum ambiguum, pH 7.4) is recorded as 40%. Besides, in the data set on Planorbid sp., the BCF is reported as 990 L/kg. For the same molecule, in the data set on Oncorhynchus mykiss, the “96-h LC50” value is 0.38 mg/L. Further, in the data set with Thamnocephalus platyurus, the “24-h LC50” value is 0.6 mg/L. The “bioaccumulation factor (BCF)” value in [6] is given as “higher than 2000 L/kg”. Moreover, the EC20 in the data set on Spirostomum ambiguum [3] (Spirostomum ambiguum, 1 d, pH 6) is 0.46 ± 0.18 mg/L (≈ 1.5 µM); in the data set with Spirostomum ambiguum [3] (Spirostomum ambiguum, 1 d, pH 6.5), 0.28 ± 0.04 mg/L (≈ 0.914 µM); in the data set with Spirostomum ambiguum [3] (Spirostomum ambiguum, 1 d, pH 7.4) it was 0.29 ± 0.01 mg/L (≈ 0.947 µM); with Spirostomum ambiguum [3] (Spirostomum ambiguum, 2 d, pH 6) it was 0.19 ± 0.03 mg/L (≈ 0.62 µM); in the data set with Spirostomum ambiguum [3] (Spirostomum ambiguum, 2 d, pH 6.5) it was 0.22 ± 0.08 mg/L (≈ 0.718 µM); in the data set with Spirostomum ambiguum [3] (Spirostomum ambiguum, 2 d, pH 7.4), 0.29 ± 0.01 mg/L (≈ 0.947 µM). Further, the EC20 in the data set with Spirostomum ambiguum [3] (Spirostomum ambiguum, 7 d, pH 6) was found to be 0.20 ± 0.05 mg/L (≈ 0.653 µM); in the data set with Spirostomum ambiguum [3] (Spirostomum ambiguum, 7 d, pH 6.5), 0.13 ± 0.03 mg/L (≈ 0.425 µM); in the data set on Spirostomum ambiguum [3] (Spirostomum ambiguum, 7 d, pH 7.4) it was 0.15 ± 0.01 mg/L (≈ 0.49 µM). Further, the “activity against Leishmania donovani” value in the data set on Leishmania donovani is given as “high activity”.

`NCCC(Oc1ccc(C(F)(F)F)cc1)c1ccccc1` (stereo not shown) [norfluoxetine]: the concentration in mussel was 3.06 ng/g dry weight in the data set on M. galloprovincialis (after 3 days) and 11.65 ng/g in the data set with M. galloprovincialis (after 15 days).
